Reference: US8778882B2, “Agent for strengthening calcium containing tissue and use thereof” (Hayashibara Co., Ltd., priority 2002, dated 2014)

System: Mouse MC3T3-E1 cells
Test: Calcium deposition by alizarin red-S staining
Format: cell-based
Set-up: key: +: same strength of red color as a negative control (only medium containing 0.2% (v/v) ethanol); ++: half strength of the positive control; +++: same strength of red color as a positive control (indomethacin)
Settings: MC3T3-E1, 20 mM each compound (so in the source), eight days, alizarin red-S red color judgement
Excerpt: Following Experiment 1 which investigates differentiating pre-osteoblastic cells into osteoblastic cells, some of organic compounds were investigated whether they actually enhance calcium deposition or not. Indomethacin (commercialized by Funakoshi, Co., Ltd., Tokyo, Japan) (positive control), kaempferol (commercialized by Funakoshi, Co., Ltd., Tokyo, Japan), hesperetin (commercialized by Funakoshi, Co., Ltd., Tokyo, Japan), gallic acid (commercialized by Nacalai Tesque, Kyoto, Japan), and coffeic acid (commercialized by Wako Pure Chemical Industries, Osaka, Japan) were selected as organic compounds. Mouse MC3T3-E1 cells were treated with 20 mM each above compound dissolved in 1 ml of α-MEM medium supplemented with 10% (v/v) fetal calf serum and containing 10 mM β-glycerophosphate. Since final ethanol concentration in the medium is 0.2% (v/v), α-MEM medium containing 0.2% (v/v) ethanol was prepared as a negative control. The cells were inoculated for eight days as changing the medium therewith to fresh medium with or without each sample per three days. The cells were applied to measure calcium deposition therein by usual alizarin red-S staining method. Briefly to the cells washed with 1 ml of Dulbecco phosphate buffer saline twice after removing the medium were added 1 ml of 50 (v/v) % ethanol aqueous solution and incubated for 10 minutes. After removing the 50 (v/v) % ethanol aqueous solution, the cells were incubated with 1 ml of distilled water for 10 minutes. After removing the water, the cells were applied with 1 ml of 1% (w/v) alizarin red-S solution, incubated for 10 minutes, and washed with 1 ml of distilled water for three times after removing alizarin red-S solution. Then, the calcium deposition amount was measured in a manner of judging red color on the plate bottom since deposited calcium was stained by the above treatment. The judgement criterion “+” means same strength of red color as a negative control (only medium containing 0.2% (v/v) ethanol), “+++” means same strength of red color as a positive control (indomethacin), and “++” means half strength of the positive control.

COc1ccc([C@@H]2CC(=O)c3c(O)cc(O)cc3O2)cc1O [Hesperetin]
Calcium Deposition Amount: +++
